melting point [°C] | Compound
250 to 252 | Clc1ccc2c(c1)Nc1ncccc1N=C2c1ccccc1
202 to 204 | COc1ccc(CNc2cc3c(Nc4ccc(F)c(C(F)(F)F)c4)ncnc3cn2)cc1
163 to 165 | Cc1oc(-c2ccccc2)nc1CC#Cc1ccc(CC(C(=O)O)c2ccc(-c3ccccc3)cc2)cc1 (stereo not drawn)
178 to 181 | COCCN1CCc2ccc(Nc3ncc(Cl)c(Nc4ccccc4C(=O)NCC(C)C)n3)cc2CC1
163 to 164 | O=C(O)COc1c(Br)cc(C(=O)c2c(CCc3ccccc3)oc3ccccc23)cc1Br
70 to 71 | O=S(CSc1ccc(Cl)cc1)c1ccccc1 (stereo not drawn)
92 to 95 | COC(=O)c1ccccc1-c1nc2cc(CBr)ccc2o1
148 to 152 | CCCOc1ccc(S(C)(=O)=O)cc1C(=O)O
97 to 98 | O=C(O)C(=O)c1ccc(OCc2ccccc2)cc1
140 to 142 | CCOCn1cc(F)c(=O)n(C(=O)c2cccc(C(=O)Oc3nc(OC(=O)c4ccc(Cl)cc4Cl)ccc3C#N)c2)c1=O
98 to 100 | COc1ccc(OC2COc3ccc(OCc4ccccc4)cc3C2=O)cc1 (stereo not drawn)
73 to 75 | CC[C@@H](c1ccc(F)cc1)N(Cc1ccc(C(=O)OC)cc1)S(=O)(=O)c1ccc(Cl)cc1

Second part, the compound before the results:

Compound | melting point [°C]
CNS(=O)(=O)c1ccccc1Nc1nc(Nc2ccc3c(c2)CNC(=O)CCN3)ncc1Cl | 197 to 198
CCC(C)[C@H](NC(=O)OCC1CCCC1)C(=O)N[C@@H](Cc1ccccc1)C(=O)CSCc1ccco1 (stereo partly drawn) | 77 to 78
O=C(O)CCCCCCCCCC=Cc1ccccc1 | 27 to 27.5
Cc1nc(-c2cc3cc(OCCNC[C@@H](O)c4csc(C(F)(F)F)n4)ccc3o2)no1 | 143 to 146
Cc1cccc(NC(=O)NC2C(=O)Nc3ccccc3NC2=O)c1 | > 300
Cn1cc(-c2cccc(C(F)(F)F)c2)c(=O)n1-c1cccc(Cl)c1 | 130 to 131
CN1CCN(C2=Nc3ccccc3N3CCCc4cc(Br)cc2c43)CC1 | 181 to 183
C=C1C(O)C(CO)OC1n1ccc(NC(=O)c2ccccc2)nc1=O (stereo not drawn) | > 300
N#Cc1nc(Cl)sc1Cl | 56.5 to 57
Cc1cc(C)cc(Sc2cc(=O)[nH]c(C)c2CO)c1 | 268 to 270
COc1ccc(-c2cncc(-c3cn(C)c(=O)n3-c3ccc(C(C)(C)C#N)cc3)c2)cc1 | 200
COc1cccc(CC(=O)O)c1OCCCc1cn(-c2ccc(C)cn2)nc1C(C)C | 132 to 133
COc1ccc(-c2cnn3c(N)c(-c4ccc(F)c(Cl)c4)c(C)nc23)cc1OC | 235 to 238
CCOC(=O)c1c2n(c3cc(Cl)c(F)cc3c1=O)C(COC1CCCCO1)CS2 (stereo not drawn) | 183 to 186
COc1ccc(OCc2ccccc2)cc1CC#N | 63 to 65
O=C(O)c1cccc(C(=O)NC(Cc2c[nH]c3ccccc23)C(=O)CCc2cc(C(F)(F)F)cc(C(F)(F)F)c2)c1 (stereo not drawn) | 113 to 116
O=C(C=Cc1ccc(F)cc1)c1cccs1 | 117 to 120
CCc1cccc2cc(C(C)=O)oc12 | 59 to 60
O=c1c2ccccc2nc(-c2cc(-c3ccccc3)c(N3CCOCC3)s2)n1-c1ccccc1Cl | 160 to 161
CCC12CCC3C4CCC(OC)=CC4=CCC3C1C=CC2=O (stereo not drawn) | 159 to 161
Cc1c(NC(=O)CC(C)(C)C)cc2c(c1C)OC(C)(C)C2(O)c1ccco1 (stereo not drawn) | 108 to 110
COC(=O)c1cc(Cl)c(N=C2NCCN2)c(Cl)c1 | 229 to 231
CC1(C)CCC(C)(C)c2cc(-c3cc(I)ccc3-c3ccccc3)ccc21 | 120 to 122
O=C1NC2(CCCCC2)c2ccccc21 | 232 to 234
O=C(O)c1ccc2oc3c(c(=O)c2c1)CCCC3=Cc1ccccc1 | 284 to 286
Cc1ccccc1-n1c(CC(O)c2ccccc2)nc2ccccc2c1=O (stereo not drawn) | 119

From a melting point compilation (Tetko et al.; mined from patent text by program, amines drawn as free bases though some values may be those of a salt)
